The text below walks through data of ChEMBL document CHEMBL1268867, “ATPases as drug targets: insights from heat shock proteins 70 and 90” (J Med Chem, 2010).

Broadly, the Kd is the constant that tells how readily two partners part at equilibrium. Read a low Kd as tighter binding.

Test [1] can be described thus: Binding affinity to Hsp70 nucleotide binding domain.
Test [2] addresses Heat shock cognate 71 kDa protein (Bos taurus, UniProt P19120). The test can be described thus: Binding affinity to bovine Hsc70 by filter binding assay.
The target of test [3] is Heat shock cognate 71 kDa protein (Homo sapiens, UniProt P11142). The test can be described thus: Binding affinity to human Hsc70 by isothermal calorimetry assay.
Sequence of Heat shock cognate 71 kDa protein (Homo sapiens, UniProt P11142) (P11142 whole entry): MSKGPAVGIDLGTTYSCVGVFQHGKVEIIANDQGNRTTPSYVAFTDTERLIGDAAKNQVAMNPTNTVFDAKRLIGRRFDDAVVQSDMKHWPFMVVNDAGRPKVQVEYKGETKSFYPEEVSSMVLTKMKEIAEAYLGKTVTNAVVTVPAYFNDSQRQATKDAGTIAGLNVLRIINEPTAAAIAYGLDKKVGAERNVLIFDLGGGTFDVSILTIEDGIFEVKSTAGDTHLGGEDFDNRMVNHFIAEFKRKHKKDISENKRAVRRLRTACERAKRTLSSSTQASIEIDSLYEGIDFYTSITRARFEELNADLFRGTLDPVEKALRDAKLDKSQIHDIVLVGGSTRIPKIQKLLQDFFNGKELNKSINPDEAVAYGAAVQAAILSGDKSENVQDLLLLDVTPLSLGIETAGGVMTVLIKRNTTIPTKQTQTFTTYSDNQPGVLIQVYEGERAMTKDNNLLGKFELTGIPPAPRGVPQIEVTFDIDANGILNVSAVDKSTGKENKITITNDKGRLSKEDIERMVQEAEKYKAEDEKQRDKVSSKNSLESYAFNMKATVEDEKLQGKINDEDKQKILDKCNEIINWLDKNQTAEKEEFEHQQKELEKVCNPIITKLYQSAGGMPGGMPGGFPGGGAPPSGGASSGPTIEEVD

Sequence of Heat shock cognate 71 kDa protein (Bos taurus, UniProt P19120) (P19120 whole entry): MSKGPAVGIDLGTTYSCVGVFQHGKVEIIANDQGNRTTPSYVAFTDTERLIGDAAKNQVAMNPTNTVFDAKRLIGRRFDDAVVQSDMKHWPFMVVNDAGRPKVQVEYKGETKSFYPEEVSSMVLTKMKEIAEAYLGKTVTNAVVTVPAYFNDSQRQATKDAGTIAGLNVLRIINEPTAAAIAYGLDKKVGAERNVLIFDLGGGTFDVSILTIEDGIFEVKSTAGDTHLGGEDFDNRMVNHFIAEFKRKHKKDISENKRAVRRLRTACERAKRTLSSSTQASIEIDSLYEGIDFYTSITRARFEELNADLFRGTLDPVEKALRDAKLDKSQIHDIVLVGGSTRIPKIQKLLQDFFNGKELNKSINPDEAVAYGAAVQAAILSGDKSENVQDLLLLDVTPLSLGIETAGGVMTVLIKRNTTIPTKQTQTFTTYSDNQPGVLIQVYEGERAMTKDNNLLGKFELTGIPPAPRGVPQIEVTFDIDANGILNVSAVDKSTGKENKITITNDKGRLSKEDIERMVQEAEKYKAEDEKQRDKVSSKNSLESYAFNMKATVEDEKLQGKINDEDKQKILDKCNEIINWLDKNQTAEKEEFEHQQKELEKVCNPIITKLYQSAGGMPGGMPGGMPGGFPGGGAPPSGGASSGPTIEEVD

For `N#Cc1ccc(COC[C@H]2O[C@@H](n3c(NCc4ccc(Cl)c(Cl)c4)nc4c(N)ncnc43)[C@H](O)[C@@H]2O)cc1`, the dissociation constant (Kd) in test [1] is 300 nM. `Nc1ncnc2c1ncn2[C@@H]1O[C@H](COP(=O)(O)OP(=O)(O)O)[C@@H](O)[C@H]1O` [ADENOSINE DIPHOSPHATE]: the values for the Kd in test [2] and in test [3] were 110 nM and 260 nM, respectively.
